These results are taken from US8703970B2, “Compounds having photochemically removable protecting groups based on an electrocyclic reaction between a chromophore attached via an anilide group to a benzothiophene ring” (Marquette University, priority 2012, dated 2014).

Where two headings read alike, the source gives them in different places.

The nature of data set [1]: Preparative photolysis with Pyrex-filtered Hanovia medium pressure mercury lamp, products quantified by NMR. It counts as physicochemical. As to conditions: for chemical yield of leaving group expulsion / photoproduct formation in preparative photolysis: N2 saturated aqueous 100 mM phosphate buffer (pH 7) in CH3CN, NMR integration. On the procedure: (§1) For the ester ε=5600 M^−1 cm^−1, while the acid has ε=4200 M^−1 cm^−1. For preparative photolyses Pyrex-filtered light from a Hanovia medium pressure mercury lamp was used. A sunlamp was also effective at photolysing all of the compounds in the study. Quantum yields were determined at 390 nm using a monochromator for wavelength selection utilizing a high pressure mercury lamp as the light source.
Similarly, preparative photolysis of […] acid 9 (LG^−=Cl^−) in N2 saturated 75% H2O in CH3CN containing 100 mM phosphate buffer (pH 7) gave the single regioisomeric photoproduct 27 in 98% yield by NMR integration, as above for 8 (LG^−=Cl^−). The regiospecificity was again established by 600 MHz ^1H NMR COSY. […] Photolysis of acid 9 (LG^−=PhS^−, HS^−, PhCH2S^−) under the same conditions as 8 (LG^−=Cl^−) also gave photoproduct 27 in 98-100% yields upon expulsion of these thiolate leaving groups. For acid 9 (LG^−=PhCH2S^−) the released benzyl thiol was quantified in photolyses of 4.5×10^−3 M solutions of 35% D2O in CD3CN containing phosphate buffer (as above) contained in NMR tubes. Yields were 96% thiol and 99% of 27 at 100% conversion of reactant by ^1H NMR spectroscopy. Very similar results were found when DMSO-d6 was the photolysis solvent.
The regiospecific formation of 26 or 27 in the preparative photolyses of ester 8 or acids 9 requires the presence of the ester and carboxylic acid substituents attached to the C-6 position of the benzothiophene ring system of the reactants. In contrast, photolyses of the unsubstituted benzothiophene ring system 7 (LG^−=Cl^−) in 16% water containing 100 mM phosphate buffer in CH3CN gave both regioisomeric photoproducts 30 and 31 as a 42:58 mixture, respectively, in 100% yield according to 400 MHz ^1H NMR spectroscopy (Scheme 6).
To determine whether a “heavy atom effect” promoted intersystem crossing of the singlet excited state to the triplet excited state, work focused upon the C-7 bromide of thioxanthone ester 10 (LG^−=Cl^−). Preparative photolysis of ester 10 in N2 saturated 19% H2O in CH3CN containing 100 mM phosphate buffer (pH 7), as above for ester 8 (LG^−=Cl^−), exclusively gave regioisomer 32 in 99% yield, and 33 was not observed by ^1H NMR spectroscopy of the photolysate (Scheme 7).
A 0.010 M solution of 8 (LG^−=Cl^−) in N2 saturated 17% H2O in CH3CN containing 100 mM phosphate buffer at pH 7 was irradiated with a 450 W Hanovia medium pressure mercury lamp with a Pyrex filter for 90 min. The photoproduct was isolated by filtration. The photoproduct was washed with H2O and a small amount of CHCl3 and dried under vacuum. The product was a yellow powder, mp >300° C. […] A COSY spectrum in d6-DMSO was obtained (see Supporting Information).
A 0.010 M solution of 13 (LG^−=Cl^−) in N2 saturated 75% H2O in CH3CN containing 100 mM phosphate buffer at pH 7 was irradiated with a 450 W Hanovia medium pressure mercury lamp with Pyrex filter for 90 min. The photolysate was acidified to pH 2 with conc. HCl to precipitate the photoproduct carboxylic acid 27. The photoproduct was obtained by filtration, washing with H2O, and drying under vacuum, as a yellow powder, mp >300° C.
A 0.010 M solution of 7 (LG^−=Cl^−) in N2 saturated 17% H2O in CH3CN containing 100 mM phosphate buffer at pH 7 was irradiated with a 450 W Hanovia medium pressure mercury lamp with a Pyrex filter for 90 min. The photoproduct was isolated by filtration as a mixture of two isomers, 30, 31. The mixture of product isomers was dissolved in hot DMSO. Solid photoproduct isomer 31 was obtained upon cooling of the hot DMSO and filtration. Photoproduct isomer 31 was washed with water and methanol and dried under vacuum to obtain 31 as floppy powder, mp >300° C. Solid photoproduct isomer 30 was obtained upon addition of water to the above DMSO filtrate by filtration, after washing with water and methanol. The photoproduct isomer 30 was crystallized from CHCl3 to give a yellow crystalline solid, mp 271-273° C. […]

Data set [2] can be described thus: Photolysis with 120 W sunlamp for 72 h. It is filed as physicochemical. As to conditions: gives exclusively product 26 or 27. On the procedure:
The photolyses of ester 8 (LG^−=Cl^−) and acids 9 (LG^−=Cl^−, PhS^−, HS^−, PhCH2S) were repeated with a 120 W sunlamp for 72 h under otherwise the same conditions described above for the Hanovia runs.

Another data set is described as follows: Absorption spectra. It counts as physicochemical. As for the experimental part: as §1
Photoproduct 26 was identified by ^1H NMR spectroscopy and elemental analysis. […] Regioisomer 28 would have shown only four vicinal couplings in the COSY spectrum. […] The compound was obtainable only as a powder, despite repeated attempts to obtain crystals for structure determination using X-ray diffraction.

The nature of data set [3]: Product quantum yield determination for photochemical leaving group expulsion at 390 nm. It counts as physicochemical. As to conditions: for quantum yield Φ for formation of 27 / product quantum yield Φ: 390 nm; for quantum yield Φ for formation of 27: 2.0×10^−3 M acid in N2 saturated 75% aq buffer in CH3CN; for product quantum yield Φ: N2 saturated 19% H2O in dioxane containing 100 mM buffer (1.8×10^−3 M for 8; similar conditions for 7), products quantified by NMR. As for the experimental part:
as §1
A semi-micro optical bench was used for quantum yield determinations, similar to the apparatus described by Zimmerman.^32 Light from a 200 W high-pressure mercury lamp was passed through an Oriel monochromator, which was set to 390 nm wavelengths. The light was collimated through a lens. A fraction of the light was diverted 90° by a beam splitter to a 10×3.6 cm side quartz cylindrical cell containing an actinometer. The photolysate was contained in a 10×1.8 cm quartz cylindrical cell of 25 mL volume. The concentrations of the reactants were 0.0018-0.0030 M. All quantum yields reported herein were the average of two or more independent runs. Behind the photolysate was mounted a quartz cylindrical cell containing 25 mL of actinometer. Light output was monitored by ferrioxalate actinometery using the splitting ratio technique.
For 7 (LG^−=Cl^−), 8 (LG^−=Cl^−), and 10 (LG^−=Cl^−) 50 mL of water was added to the photolysate, and the diluted photolysate was extracted four times with 30 mL of CH2Cl2. The combined extracts were washed twice with 30 mL water, brine, and concentrated in vacuo. The residue was dissolved in d6-DMSO. DMF was added as a standard for NMR analyses (vide infra). However, for 7 (LG^−=Cl^−) the NMR solvent was CDCl3 and the NMR standard was DMSO.
For 9 (LG^−=Cl^−, PhS^−, HS^−, PhCH2S^−) the photolysate was adjusted to pH 2 by addition of 3 N HCl. The resultant precipitate was collected by suction filtration and washed with 50 mL water. The precipitate was transferred to a flask, and any untransferred precipitate was dissolved in DMSO and combined with the transferred precipitate. The DMSO was evaporated to dryness under vacuum and DMSO-d6 was added along with DMF as a standard for NMR analysis.
Products were analyzed by ^1H NMR spectroscopy using DMF or DMSO as the internal standard and conversions were 12-16%. At the concentrations used most of the incident light would have been absorbed near the front face of the photolysis cell, raising the concern that the photoproducts formed during the photolyses could competitively absorb the incident light, reducing the light absorbed by the reactants. This internal filter effect would depress the observed Φ values below the actual values. In the case of 8 (LG^−=Cl^−) the Φ was thus redetermined at an 18-fold lower concentration of 1.0×10^−4 M of reactant and found to be within experimental error of the value obtained at higher concentration at 14% conversions for duplicate runs. Due to the very low concentrations of the photoproduct 26 formed, it had to be quantified by absorption spectroscopy of the exposed photolysates without any workup. The product absorption at 432 nm was deconvoluted from the tailing absorption of reactant using Origin 8.6 software (OriginLab). After deconvolution, concentrations were obtained from a calibration curve constructed from known mixtures of reactant and product.

For data set [4] the following is noted: cited from earlier work.
Setting [5] is: 4.5×10^−3 M in 35% D2O in CD3CN containing phosphate buffer, 100% conversion, 1H NMR.

Regarding `CN(C(=O)c1sc2cc(C(=O)O)ccc2c1Cl)c1ccc2sc3ccccc3c(=O)c2c1` [9 (LG^−=Cl^−), 3-chloro-2-[methyl-(9-oxo-9H-thioxanthen-2-yl)-carbamoyl]-benzo[b]thiophene-6-carboxylic acid], the melting point (in general, the temperature, or range, at which the solid turns liquid) is 286 to 287 °C. In addition, the “chemical yield of leaving group expulsion / photoproduct formation in preparative photolysis” value in data set [1] is 98%. Besides, in data set [2], the “leaving group expulsion with sunlamp” value was “essentially quantitatively”. Further, the “ε at absorption maximum” value in the data set “Absorption spectra” (385 nm, aqueous dioxane or acetonitrile) came out at 4200 M⁻¹ cm⁻¹. Moreover, the absorption maximum in “Absorption spectra” (aqueous dioxane or acetonitrile) is 385 nm. In data set [3], the “quantum yield Φ for formation of 27” value worked out at 0.034.
The compound `CN(C(=O)c1sc2cc(C(=O)O)ccc2c1Sc1ccccc1)c1ccc2sc3ccccc3c(=O)c2c1` [9 (LG^−=PhS^−), 2-[methyl-(9-oxo-9H-thioxanthen-2-yl)-carbamoyl]-3-phenylsulfanyl-benzo[b]thiophene-6-carboxylic acid] showed a melting point of 278 to 279 °C. In addition, in data set [2], the “leaving group expulsion with sunlamp” value was “essentially quantitatively”. In data set [3], the “quantum yield Φ for formation of 27” value was found to be 0.017.
For “6-methylcarboxylate-[1]benzothiopheno[2,3-c]benzo[a]anthracene-4-methyl-4H-7-thia-4-aza-3,12-dione [compound 26]”, the “ε at long wavelength maximum” value in “Absorption spectra” (432 nm, aq dioxane containing phosphate buffer) was 10300 M⁻¹ cm⁻¹. The “long wavelength absorption maximum” value in “Absorption spectra” (aq dioxane containing phosphate buffer) was found to be 432 nm.
On to `CN(C(=O)c1sc2ccccc2c1Cl)c1ccc2sc3ccccc3c(=O)c2c1` [7 (LG^−=Cl^−), 3-chloro-benzo[b]thiophene-2-carboxylic acid methyl-(9-oxo-9H-thioxanthen-2-yl)amide], for which, in data set [1], the “chemical yield of leaving group expulsion / photoproduct formation in preparative photolysis” value was 100%. The “product quantum yield Φ” value in data set [3] amounted to 0.069.
For the compound `COC(=O)c1ccc2c(Cl)c(C(=O)N(C)c3ccc4sc5ccc(Br)cc5c(=O)c4c3)sc2c1` [10 (LG^−=Cl^−), 2-[(7-bromo-9-oxo-9H-thioxanthen-2-yl)-methyl-carbamoyl]-3-chloro-benzo[b]thiophene-6-carboxylic acid methyl ester], the melting point was 237 to 239 °C. Further, the “chemical yield of leaving group expulsion / photoproduct formation in preparative photolysis” value in data set [1] worked out at 99%. Also, the “product quantum yield Φ” value in data set [3] came to 0.053. Moreover, in data set [3] (bromo ester 10 vs ester 8), the “quantum yield higher than Φ=0.039 of ester 8 (LG^−=Cl^−)” value is reported as 38%.
As to `CN(C(=O)c1sc2cc(C(=O)O)ccc2c1S)c1ccc2sc3ccccc3c(=O)c2c1` [9 (LG^−=HS^−), 3-mercapto-2-[methyl-(9-oxo-9H-thioxanthen-2-yl)-carbamoyl]-benzo[b]thiophene-6-carboxylic acid], the melting point lay within 210 to 212 °C. In addition, in data set [2], the “leaving group expulsion with sunlamp” value is listed as “essentially quantitatively”. The “quantum yield Φ for formation of 27” value in data set [3] was 0.0079.
For `CN(C(=O)c1sc2cc(C(=O)O)ccc2c1SCc1ccccc1)c1ccc2sc3ccccc3c(=O)c2c1` [9 (LG^−=PhCH2S^−), 3-benzylsulfanyl-2-[methyl-(9-oxo-9H-thioxanthen-2-yl)-carbamoyl]-benzo[b]thiophene-6-carboxylic acid], the melting point lay in the range of 151 to 152 °C. Also, in data set [1] (setting [5]), the “yield of 27” value is given as 99% and the “yield of released benzyl thiol” value was 96%. Also, in data set [2], the “leaving group expulsion with sunlamp” value is “essentially quantitatively”. Moreover, the “quantum yield Φ for formation of 27” value in data set [3] is 0.011.
Turning to `O=c1c2ccccc2sc2ccccc12` [thioxanthone], the figures for the triplet lifetime in data set [4] (in CH3CN) and in data set [4] (polar protic solvent (methanol)) were 6.7 μs and 13.3 μs, respectively. In addition, the triplet yield in data set [4] (nonpolar hydrocarbon solvent (cyclohexane)) is recorded as 0.85; in data set [4] (polar, protic solvent (CH3OH)) it was 0.56.
